One molecule from patent US20060127315A1, “Methods of treating humans undergoing injection of a contrast agent” (SHIVA BIOMEDICAL, L.L.C., priority 2004, published 2006) can be followed below.

The data set in a line: Pharmacokinetics of deferiprone, single oral dose crossover study in subjects with mild renal insufficiency. Conditions: patients with mild to moderate renal insufficiency. It is filed as in vivo, human. Here is the method:
Blood samples were collected immediately prior to and for a period of 48 hours after each dose and the concentrations of deferiprone determined.

As to `Cc1c(O)c(=O)ccn1C` [deferiprone, 1,2-dimethyl-3-hydroxy-pyrid-4-one], the “pharmacokinetic profile compared with patients with normal renal function” value was “very similar to that reported with patients with normal renal function”.
